Columns and labels:
[1] = system: CHO cells expressing an nanobody; test: Fed batch culture of CHO cells expressing a nanobody in shake flasks, FeSO4 addition on day 6; assay type: cell-based, Chinese hamster; details: 1 mM iron added on day 6
Method: CHO cells expressing an nanobody were grown by fed batch culture in shake flasks. Cells were initially cultured in 7% CO2 incubator at 37° C. for 0-4 days and shifted to 31° C. after day 4. FeSO4 was added on day 6 to effect a concentration of 1 mM of iron in the cell culture medium. Cells were subjected to cell density, viability, titer, lactate level and Qp analysis at various time points throughout the cell culture process as described in Example 1.

[2] = system: cell line producing a monoclonal antibody (clone 2.8); test: Fed batch culture of clone 2.8 in shake flasks, Fe addition on day 0 or day 9; assay type: cell-based; details: 600 μM added on day 0
Method: This experiment is designed to test whether a high concentration of Fe added at day 0 would have an advantageous effect. […] Seed density was 1.5×10^6 cells/mL. The cells were cultured for 14 days. The basal medium was a chemically defined basal medium supplemented with amino acids including 4 mM glutamine. Feed medium is a chemically defined concentrated feed medium. Fe-citrate or FeSO4 was added on day 0 or day 9 to effect a concentration of 600 μM of iron in the cell culture medium. Cells were subjected to cell density, viability, titer and Qp analysis at various time points throughout the cell culture process as described in previous examples.

O=S(=O)([O-])[O-].[Fe+2] [FeSO4]
Qp ([1]; control 10 μg/e6/day, FIG. 9): 20 μg/e6/day
lactate level ([1]; control increased to 2.24 g/L on day 15, FIG. 10): ~0 g/L
titer ([1]; read on day 15, control 1.5 g/L, FIG. 8): 3.2 g/L
viability ([1]; read on day 15, control 70%, FIG. 7): 96%

ferric citrate [Fe-citrate]
cell growth ([2]; FIG. 11): increased cell growth at early stage
viability on day 14 ([2]; control 74-80%, FIG. 12): about 75%
Qp ([2]; throughout the culture, FIG. 13): lower than all other conditions

Source: patent publication US20140322758A1, “ADDITION OF IRON TO IMPROVE CELL CULTURE” (Pfizer Inc., priority 2011, published 2014)
